Reference: patent US5985937A, “Use of 2,4-distributed phenol derivatives as 5-lipoxygenase inhibitors” (priority 1994, dated 1999)

Key:
seborrheic dermatitis = experiment: treatment of dogs with seborrheic dermatitis; format: in vivo, dog; conditions: 15 dogs (Cockers), phase I or II, 1 mg/kg.day p.o. plus 2% shampoo
Procedure: A total of 15 dogs (Cockers) suffering from seborrheic dermatitis in phase I or II were treated with doses of 1 mg/kg.day p.o. of Bobel-24, and were simultaneously washed with a shampoo containing 2% of the same product.

[1] = test system: lactatedehydrogenase (LDH); experiment: liberation of lactatedehydrogenase (LDH) into the medium; conditions: check for cellular lysis
Text: In order to show the 5-LO inhibiting activity of the products of the present invention, a specific test based on human polymorphonuclear leukocytes is chosen.

canine arthritis = experiment: clinical trial on canine arthritis; format: in vivo, dog; set-up: key: +++: very good response, total recovery; ++: good response, functionability recovery; +: moderate response, improvement; -: negative response or no apparent improvement; conditions: 2 mg/kg day orally, 15 days
Procedure: After the diagnosis, each animal was treated with Bobel capsules during 45 days, with a follow up every 15 days. Blood, synovial liquid and urine samples were taken at the beginning and at the end of the treatment in order to perform the following tests: Synovial liquid analysis (cytology, cytokines 1,6,8 and TNF); LTB4; LTC4; PGE2; hematic count and leukocyte content; standard serum biochemistry; urine sediment; Rose-Wealer test; and radiology control. The methodology for clinical validation involved applying evaluating uniform parameters and classifying the results according to the following notations: (+++)=very good response, total recovery; (++)=good response, functionability recovery; (+)=moderate response, improvement; (-)=negative response or no apparent improvement.
After the diagnosis each animal was treated with capsules of Bobel-24 during 15 days. Blood, synovial liquid and urine samples were taken at the beginning and at the end of the treatment in order to perform the same tests as in example 13, using the same notation for the clinical evolution.

[2] = test system: canine seborrheic dermatitis; experiment: clinical trial on canine seborrheic dermatitis; format: in vivo, dog; set-up: key to Evolution, etiology idiopathic / Evolution, etiology demodex / Evolution, etiology follicular cyst / Evolution, etiology pyoderma / Evolution, etiology dermatomycosis / Evolution, etiology allergic to fleas / Evolution, etiology hypothyroidism / Evolution, etiology leishmaniosis: +++: very good response, clinically cured; ++: good response, marked lowering in the clinical signs; +: moderate response, improvement; -: negative response or no apparent improvement; key to Evolution, etiology dermatophytes: +++: very good response, total recovery; ++: good response, functionability recovery; +: moderate response, improvement; -: negative response or no apparent improvement
Procedure: (§1) The animals had been diagnosed to suffer from seborrheic dermatitis, and the diagnosis was confirmed by a biopsy. The treatment consisted of a weekly bath with a 2% Bobel-24 shampoo and evaluation of the treatment after 15 days. The efficiency of the treatment was analyzed evaluating the following therapeutic symptoms; removal of scabs and scales, greasiness reduction, sheborrheic odor reduction, relieve of the pruritus, and antiinflammatory effect. […] In view of the results the following conclusions were reached: […]

dogs = experiment: acute toxicity in dogs; format: in vivo, dog; conditions: after 28 days at doses of 200, 300, 400, 1000 and 2000 mg/kg
tendonitis = experiment: treatment of horses with tendonitis; format: in vivo, horse; conditions: 15 mg/day intraarticular infiltration
Procedure: Twenty five horses suffering from tendonitis, with claudication of the corresponding tendon, were treated with 15 mg/day via intraarticular infiltration of Bobel-24.

[3] = test system: canine seborrheic dermatitis; experiment: clinical trial on canine seborrheic dermatitis; format: in vivo, dog; set-up: key: +++: very good response, clinically cured; ++: good response, marked lowering in the clinical signs; +: moderate response, improvement; -: negative response or no apparent improvement; conditions: weekly bath 2% shampoo, 15 days
Procedure: as §1

herpes simplex [4] = experiment: test for antiviral activity in vitro
Text: (§2) The 2,4-disubstituted phenol derivatives of the present invention are anti-herpetic agents in vivo, since they eliminate the symptoms of patients suffering from different types of herpes simplex (genital herpes, herpes of mouth and lips, recurrent herpes), and of patients suffering from herpes zoster. There is no relapse after leaving the treatment. The products are active both intramuscularly and topically, the first via being preferred.
(§3) A total of 25 patients with symptoms of different herpes simplex (genital, buccal or reincident) were treated with 15 mg/day of Bobel-24, intramuscularly, during a month, with the following results: with the ten patients of genital herpes simplex, the results was excellent in 7 cases, good in 2 and regular in 1; of the twelve with buccal herpes simplex it was excellent in 9 cases, good in 2 and regular in 1; of the 3 with reincident herpes it was excellent in 2 of the cases and good in 1. […] The case of genital herpes which resulted "regular" was an obese and diabetic […], and although there was an improvement there was also reincidency. Independently an test for antiviral activity in vitro resulted negative.

herpes simplex [5] = experiment: in vivo activity in patients with herpes simplex; set-up: species or system human (patients); conditions: 15 mg/day intramuscularly, a month
Text: as §2, §3

[6] = solubility in aqueous medium; format: physicochemical; conditions: in words
Procedure: Due to the insolubility of Bobel-24 in aqueous medium, it was previously dissolved in a 50% solution of lysine. An anionic sulfonated detergent was used as foaming agent, containing 10-15% tegobetaine, 20-30% texapone N-40, and water. A 2% shampoo was prepared with the following composition: 2 g Bobel-24, 12 ml of 50% aqueous solution of lysine, 48 ml of water, 40 ml of the anionic sulfonated detergent.

rats = experiment: chronic toxicity in rats; format: in vivo, rat; conditions: 350 mg/kg.day, 6 months; hematological, biochemical, anatomy-pathological
[7] = test system: rheumatoid arthritis, hip dysplasia, equine cauda, deforming spondolitis or coxarthrosis; experiment: treatment of dogs with articular or musculoskeletal diseases; format: in vivo, dog; conditions: twenty dogs, oral 1-3 mg/kg.day
[8] = weekly bath 2% shampoo, 15 days, Scotty T 4 years

Oc1c(I)cc(I)cc1I [Bobel-24, 2,4,6-triiodophenol]
disappearance of the dermatitis (seborrheic dermatitis): practically a total disappearance of the dermatitis
LDH liberation into the medium [1]: cannot be attributed to cellular lysis
Evolution, knee instability (canine arthritis; German shepherd 2 years): ++
Evolution, osteochondritis (canine arthritis; Mongrel 1 year): +++
Evolution, arthritis (canine arthritis; b340 Mongrel 8, b342 German shepherd 6, b343 Rottwailer 1, b347 Mongrel 7 years): +++
secondary or adverse effects (mucosal or skin irritation, unpleasant smells) ([2]; 2% shampoo, topical): absence of secondary or adverse effects
scabs, greasiness, seborrheic odor, erithema and pruritus ([2]; 2% shampoo, all animals except one with dermatophytosis): a lowering of the scabs, disappearance of the greasiness and the seborrheic odor, disappearance of the erithema and the pruritus was observed
result in idiopathic seborrheic dermatitis ([2]; 2% shampoo, improvement similar to oral therapy of corticoids): excellent
result in secondary seborrheic dermatitis ([2]; Bobel-24 shampoo): the shampoo improves the aspect of the fur, but does not combat the ethiological agent responsible for the disease
Evolution, etiology hypothyroidism ([2]; weekly bath 2% shampoo, 15 days, Cocker A 9 years): ++
Evolution, etiology leishmaniosis ([2]; weekly bath 2% shampoo, 15 days, Cocker S 8 years): ++
Evolution, etiology demodex ([2]; weekly bath 2% shampoo, 15 days, Mongrel 4 years): ++
Evolution, etiology allergic to fleas [2, 8]: ++
Evolution, etiology dermatophytes [2, 8]: -
Evolution, etiology follicular cyst ([2]; weekly bath 2% shampoo, 15 days, Yorkshire 7 years): ++
Evolution, etiology idiopathic ([2]; weekly bath 2% shampoo, 15 days, b367 Cocker A 13, b393 Cocker S 15, b394 Cocker S 12 years): +++
Evolution, etiology pyoderma ([2]; weekly bath 2% shampoo, 15 days, b373 Pekinese 2, b396 German shepherd 10 years): ++
Evolution, etiology dermatomycosis ([2]; weekly bath 2% shampoo, 15 days, b381 Schnauzer 3, b387 German shepherd 1 year): ++
acute toxicity in dogs (dogs): not observed
outcome in the rest of the cases (tendonitis; horses, 15 days): the claudication disappeared within the same period of time, but an inflammatory ring persisted around the tendon
cases in which the process was totally reduced in 15 days (tendonitis; of twenty five horses): 17 cases
Evolution, etiology allergic ([3]; b363 Poodle 6, b364 Mongrel 14, b374 Mongrel 10, b376 Belgian shepherd 10, b382 Poodle 9, b392 Mongrel 5 years): ++
Evolution, etiology leishmania ([3]; b369 German shepherd 10, b377 Pekinese 11, b379 German shepherd 3 years): ++
antiviral activity in vitro (herpes simplex [4]): negative
disappearance of the symptoms, herpes simplex overall (herpes simplex [5]; 25 patients): clear and generalized disappearance of the symptoms
cases with excellent result, reincident herpes (herpes simplex [5]; of 3 patients): 2 cases
cases with good result, reincident herpes (herpes simplex [5]; of 3 patients): 1 cases
cases with excellent result, genital herpes simplex (herpes simplex [5]; of ten patients): 7 cases
cases with good result, genital herpes simplex (herpes simplex [5]; of ten patients): 2 cases
cases with regular result, genital herpes simplex (herpes simplex [5]; of ten patients, obese and diabetic patient, reincidency): 1 cases
cases with excellent result, buccal herpes simplex (herpes simplex [5]; of twelve patients): 9 cases
cases with good result, buccal herpes simplex (herpes simplex [5]; of twelve patients): 2 cases
cases with regular result, buccal herpes simplex (herpes simplex [5]; of twelve patients): 1 cases
solubility in aqueous medium [6]: insolubility
chronic toxicity in rats (rats): not observed
response [7]: very good response within 1 or 2 weeks
